Laboratory results taken from ChEMBL document CHEMBL3286286, “2-(2-Arylphenyl)benzoxazole As a Novel Anti-Inflammatory Scaffold: Synthesis and Biological Evaluation” (ACS Med Chem Lett, 2014).

Experiments:
[1] = molecular target: T1, Prostaglandin G/H synthase 2 (Homo sapiens) (UniProt P35354); settings: at 10 µM
T1 sequence (whole entry): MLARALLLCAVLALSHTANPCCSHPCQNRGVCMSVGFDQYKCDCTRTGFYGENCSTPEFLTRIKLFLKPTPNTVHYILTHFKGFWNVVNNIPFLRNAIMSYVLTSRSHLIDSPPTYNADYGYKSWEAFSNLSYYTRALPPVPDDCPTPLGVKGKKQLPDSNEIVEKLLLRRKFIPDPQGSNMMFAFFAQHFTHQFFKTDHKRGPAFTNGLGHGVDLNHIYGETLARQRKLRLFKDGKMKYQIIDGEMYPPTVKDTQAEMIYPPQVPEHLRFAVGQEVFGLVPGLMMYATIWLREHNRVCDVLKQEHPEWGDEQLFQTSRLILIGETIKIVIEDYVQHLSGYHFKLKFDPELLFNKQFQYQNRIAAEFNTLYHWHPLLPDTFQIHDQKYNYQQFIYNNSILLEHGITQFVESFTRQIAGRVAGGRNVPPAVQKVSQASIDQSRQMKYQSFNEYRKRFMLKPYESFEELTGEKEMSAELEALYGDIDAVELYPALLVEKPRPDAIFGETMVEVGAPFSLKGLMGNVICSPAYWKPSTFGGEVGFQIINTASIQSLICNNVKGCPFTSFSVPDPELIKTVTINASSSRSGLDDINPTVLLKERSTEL
Description: Inhibition of human recombinant COX2 using arachidonic acid as substrate at 10 uM

[2] = molecular target: T2, Prostaglandin G/H synthase 1 (Ovis aries) (UniProt P05979); experiment: Inhibition of ovine COX1 using arachidonic acid as substrate at 10 uM
T2 sequence (whole entry): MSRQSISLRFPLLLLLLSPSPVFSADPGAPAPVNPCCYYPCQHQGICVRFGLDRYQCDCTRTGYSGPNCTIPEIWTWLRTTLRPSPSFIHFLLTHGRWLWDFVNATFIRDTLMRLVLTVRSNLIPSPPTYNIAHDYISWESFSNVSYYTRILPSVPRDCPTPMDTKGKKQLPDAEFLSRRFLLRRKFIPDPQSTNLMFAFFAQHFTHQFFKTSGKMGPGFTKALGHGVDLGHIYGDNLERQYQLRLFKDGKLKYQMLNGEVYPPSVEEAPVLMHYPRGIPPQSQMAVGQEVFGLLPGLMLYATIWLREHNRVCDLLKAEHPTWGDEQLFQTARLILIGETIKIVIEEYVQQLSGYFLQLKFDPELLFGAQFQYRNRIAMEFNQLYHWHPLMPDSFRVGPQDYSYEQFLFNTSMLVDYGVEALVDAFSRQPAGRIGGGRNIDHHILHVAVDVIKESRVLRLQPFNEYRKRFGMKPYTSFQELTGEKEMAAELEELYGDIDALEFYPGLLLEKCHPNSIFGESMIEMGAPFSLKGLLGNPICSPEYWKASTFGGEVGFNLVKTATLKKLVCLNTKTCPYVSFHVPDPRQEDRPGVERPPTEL

[3] = Selectivity for human recombinant COX2 to ovine COX1
Rattus norvegicus [4] = experiment: Antiinflammatory activity in Wistar albino rat assessed as reduction in carrageenan-induced hind paw volume at 12.5 mg/kg, ip administered 10 mins after carrageenan-challenge measured up to 3 hrs; assay type: functional; settings: route intraperitoneal
Rattus norvegicus [5] = experiment: Antiinflammatory activity in Wistar albino rat assessed as reduction in carrageenan-induced hind paw volume at 25 mg/kg, ip administered 10 mins after carrageenan-challenge measured up to 3 hrs; assay type: functional; settings: route intraperitoneal
[6] = Selectivity index, ratio of IC50 for ovine COX1 to IC50 for human recombinant COX2
[7] = molecular target: T3, Prostaglandin G/H synthase 1 (Ovis aries, UniProt P05979); experiment: Inhibition of ovine COX1 using arachidonic acid as substrate
T3 sequence (P05979 whole entry): T2 sequence (whole entry)

[8] = molecular target: T4, Prostaglandin G/H synthase 2 (Homo sapiens, UniProt P35354); experiment: Inhibition of human recombinant COX2 using arachidonic acid as substrate
T4 sequence (P35354 whole entry): T1 sequence (whole entry)

Row | Structure (SMILES) | inhibition [1] | inhibition [2] | Selectivity ratio [3] | inhibition in vivo at 12.5 mg/kg (Rattus norvegicus [4]) | inhibition in vivo at 25 mg/kg (Rattus norvegicus [5]) | Ratio IC50 [6] | IC50 [7] | IC50 [8]
1 | COc1cccc(-c2ccccc2-c2nc3ccccc3o2)c1OC | 59.9% | 74.9% | 0.8 |  |  |  |  | 
2 | Cc1ccc(-c2cc(C(F)(F)F)nn2-c2ccc(S(N)(=O)=O)cc2)cc1 [CELECOXIB] |  |  |  | 60.6% | 74.6% |  |  | 
3 | c1ccc(-c2ccccc2-c2nc3ccccc3o2)cc1 | 10.6% | 24% | 0.44 |  |  |  |  | 
4 | COc1ccc(-c2ccccc2-c2nc3ccccc3o2)cc1OC | 86.6% | 58.2% | 1.49 |  |  |  |  | 
5 | CS(=O)(=O)c1ccc(-c2ccccc2-c2nc3ccccc3o2)cc1 | 75.1% | 10.8% | 6.96 | 62.5% | 75% | 33.6 | 45.1 µM | 1.34 µM
6 | O=C(O)Cc1ccccc1Nc1c(Cl)cccc1Cl [DICLOFENAC] |  |  |  | 67.3% | 84.6% |  |  | 
7 | COc1ccc(-c2ccccc2-c2nc3ccccc3o2)cc1 | 14.8% | 19.1% | 0.78 |  |  |  |  | 
8 | COc1ccc(-c2ccccc2-c2nc3ccccc3o2)cc1OC1CCCC1 | 14.8% | 17.1% | 0.87 |  |  |  |  | 
9 | Fc1ccc(-c2ccccc2-c2nc3ccccc3o2)cc1 | 8.46% | 1.65% | 1.57 |  |  |  |  | 
10 | O=Cc1ccc(-c2ccccc2-c2nc3ccccc3o2)cc1 | 58% | 6.58% | 8.81 |  |  |  |  | 
11 | Oc1ccc(-c2ccccc2-c2nc3ccccc3o2)cc1Cl | 94.9% | 7.56% | 12.6 | 68.3% | 82.7% | 113 | 46.2 µM | 0.41 µM
12 | COc1ccc(-c2ccccc2-c2nc3ccccc3o2)cc1Cl | 81.4% | 6.45% | 12.6 | 53.9% | 64.4% | 69.8 | 46.8 µM | 0.67 µM
13 | CSc1ccc(-c2ccccc2-c2nc3ccccc3o2)cc1 | 43.5% | 4.07% | 10.7 |  |  |  |  | 
14 | FC(F)(F)c1ccc(-c2ccccc2-c2nc3ccccc3o2)cc1 | 11.7% | 3.45% | 3.38 |  |  |  |  | 
15 | N#Cc1ccc(-c2ccccc2-c2nc3ccccc3o2)cc1 | 40.9% | 8.46% | 4.83 |  |  |  |  | 
16 | CC(C)Oc1ccc(-c2ccccc2-c2nc3ccccc3o2)cc1Cl | 33.9% | 2.19% | 15.5 |  |  |  |  | 
17 | Clc1cc(-c2ccccc2-c2nc3ccccc3o2)ccc1OCc1ccccc1 | 17% | 10.3% | 1.65 |  |  |  |  | 
